ChEMBL document CHEMBL1201862, “PubChem BioAssay data set” (2004)
Calls of active or inactive are those of the source.

Legend:
Ion channel NompC = Ion channel NompC (Danio rerio, UniProt Q7T1G6); experiment: Fluorescence counterscreen assay for TRPML3 agonists: dose response cell-based high-throughput screening assay to identify agonists of the transient receptor potential channel N1 (TRPN1). [Related pubchem assays: 1526, 1424, 1448 ]; format: functional
Mucolipin-3 = Mucolipin-3 (Homo sapiens, UniProt Q8TDD5); experiment: Dose response cell-based high-throughput screening assay for agonists of the transient receptor potential channel ML3 (TRPML3). [Related pubchem assays: 1526, 1424, 1448 ]; format: functional
[1] = biological target: Sphingosine 1-phosphate receptor 2 (Homo sapiens, UniProt O95136); experiment: Dose Response Cell Based Assay for Agonists of the S1P2 Receptor of Purchased Analogues. [Related pubchem assays: 729, 843, 854, 736 ]; format: functional
[2] = biological target: T1, Dual specificity protein phosphatase 6 (Rattus norvegicus, UniProt Q64346)
T1 sequence (Q64346 whole entry): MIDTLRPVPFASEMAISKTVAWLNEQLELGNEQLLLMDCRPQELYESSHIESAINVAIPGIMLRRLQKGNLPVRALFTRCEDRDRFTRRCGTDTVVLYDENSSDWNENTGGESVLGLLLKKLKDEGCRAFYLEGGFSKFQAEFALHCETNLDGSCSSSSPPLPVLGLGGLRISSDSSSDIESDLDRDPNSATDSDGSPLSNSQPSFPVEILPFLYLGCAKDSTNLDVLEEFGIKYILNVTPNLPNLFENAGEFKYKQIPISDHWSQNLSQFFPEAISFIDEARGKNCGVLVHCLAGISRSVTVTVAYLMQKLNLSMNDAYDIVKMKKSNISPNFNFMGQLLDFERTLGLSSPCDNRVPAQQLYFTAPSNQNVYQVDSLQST

[3] = biological target: Heat shock 70 kDa protein 1A (Homo sapiens, UniProt P0DMV8); experiment: inhibition of Hsp70 binding activity – biochemical, fluorescence polarization, SAR follow-up (AID 1072)
[4] = biological target: T2, Tyrosine-protein phosphatase non-receptor type 7 (Homo sapiens, UniProt P35236); format: functional
T2 sequence (P35236 whole entry): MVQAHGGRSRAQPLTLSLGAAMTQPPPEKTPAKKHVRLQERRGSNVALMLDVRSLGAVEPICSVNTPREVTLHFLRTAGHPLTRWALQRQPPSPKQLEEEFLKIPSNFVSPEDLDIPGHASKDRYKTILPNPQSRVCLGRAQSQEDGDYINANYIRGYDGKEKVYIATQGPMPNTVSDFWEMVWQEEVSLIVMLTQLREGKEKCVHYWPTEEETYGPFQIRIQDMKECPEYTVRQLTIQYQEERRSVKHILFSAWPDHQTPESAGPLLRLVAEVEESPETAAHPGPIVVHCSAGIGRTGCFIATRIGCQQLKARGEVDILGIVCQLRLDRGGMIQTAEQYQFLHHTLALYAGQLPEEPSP

[5] = biological target: Heat shock cognate 71 kDa protein (Homo sapiens, UniProt P11142); experiment: In Vitro Hsc70 Dose Response Fluorescence Polarization Assay. [Related pubchem assays: 1072 ]
[6] = biological target: Glyceraldehyde-3-phosphate dehydrogenase (Homo sapiens, UniProt P04406)
[7] = biological target: T1, Dual specificity protein phosphatase 6; format: functional
[8] = A Cell Based Secondary Assay To Explore Cytotoxicity of Compounds that Sensitize Mycobacterium Tuberculosis to Beta-Lactam Antibiotics.; format: functional
[9] = biological target: T3, RNA-binding protein pos-1 (Caenorhabditis elegans, UniProt G5EF15); experiment: disruptors of C. elegans POS-1 RNA interaction – biochemical, fluorescence polarization, dose response (AID 1964);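 further: purified POS-1 fused to maltose binding protein made in E. coli; potency of compounds blocking POS-1 binding to fluorescent RNA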
T3 sequence (G5EF15 whole entry): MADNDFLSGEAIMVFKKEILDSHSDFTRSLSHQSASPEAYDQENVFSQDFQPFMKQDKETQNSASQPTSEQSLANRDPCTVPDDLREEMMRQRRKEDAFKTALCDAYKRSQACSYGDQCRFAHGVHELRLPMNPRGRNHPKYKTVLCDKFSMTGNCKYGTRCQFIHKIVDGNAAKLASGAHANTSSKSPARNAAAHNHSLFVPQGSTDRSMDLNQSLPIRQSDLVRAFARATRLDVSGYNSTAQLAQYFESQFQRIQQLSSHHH

[10] = M. tuberculosis H37Rv growth inhibitors, H37Rv strain (AID 1626); format: functional
[11] = biological target: T4, Zinc finger protein mex-5 (Caenorhabditis elegans, UniProt Q9XUB2); experiment: potency of MEX-5 RNA-binding blockers – biochemical, C. elegans, fluorescence polarization, dose response (AID 1960)
T4 sequence (Q9XUB2 whole entry): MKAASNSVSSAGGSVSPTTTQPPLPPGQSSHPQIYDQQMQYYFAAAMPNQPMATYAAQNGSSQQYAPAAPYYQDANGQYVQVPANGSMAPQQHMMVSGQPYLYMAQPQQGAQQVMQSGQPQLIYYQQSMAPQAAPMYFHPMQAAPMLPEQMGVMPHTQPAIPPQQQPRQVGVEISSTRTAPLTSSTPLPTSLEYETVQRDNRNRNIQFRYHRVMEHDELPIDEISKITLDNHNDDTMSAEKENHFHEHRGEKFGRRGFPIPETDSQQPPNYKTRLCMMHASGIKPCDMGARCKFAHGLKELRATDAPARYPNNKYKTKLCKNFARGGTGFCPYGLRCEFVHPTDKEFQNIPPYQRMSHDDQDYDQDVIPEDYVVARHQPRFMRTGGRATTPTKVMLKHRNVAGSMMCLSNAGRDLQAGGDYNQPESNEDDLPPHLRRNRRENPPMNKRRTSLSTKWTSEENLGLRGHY

[12] = biological target: T5, Heat shock factor protein 1 (Mus musculus, UniProt P38532); experiment: decrease of HSF1-responsive luciferase luminescence – cell-based, NIH3T3, dose retest, confirmation (AID 2382); format: functional;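 further: NIH3T3 fibroblasts with HSF1-driven luciferase reporter stressed by proteasome inhibitor MG132; luminescence from HSF1-driven luciferase expression after 8 hours of MG132 stress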
T5 sequence (P38532 whole entry): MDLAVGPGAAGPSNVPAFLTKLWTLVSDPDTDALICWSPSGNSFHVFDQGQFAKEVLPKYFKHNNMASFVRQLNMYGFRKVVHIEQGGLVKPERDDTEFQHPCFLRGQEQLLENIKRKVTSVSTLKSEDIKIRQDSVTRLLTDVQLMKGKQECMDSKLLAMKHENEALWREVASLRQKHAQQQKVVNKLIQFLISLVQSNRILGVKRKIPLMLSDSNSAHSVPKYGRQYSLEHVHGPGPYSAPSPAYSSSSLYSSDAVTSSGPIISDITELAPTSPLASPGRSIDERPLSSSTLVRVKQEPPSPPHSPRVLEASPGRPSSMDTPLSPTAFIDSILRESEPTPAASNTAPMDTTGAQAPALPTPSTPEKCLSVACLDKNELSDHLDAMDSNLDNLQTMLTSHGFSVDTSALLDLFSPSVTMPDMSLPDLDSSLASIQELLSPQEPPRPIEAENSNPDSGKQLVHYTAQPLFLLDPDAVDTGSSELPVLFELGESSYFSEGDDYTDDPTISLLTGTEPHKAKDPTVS

[13] = biological target: Mitogen-activated protein kinase 10 (Homo sapiens, UniProt P53779); experiment: Dose response biochemical screening assay for inhibitors of c-Jun N-Terminal Kinase 3 (JNK3). [Related pubchem assays: 746 ]
[14] = biological target: Lysosomal acid glucosylceramidase (Homo sapiens, UniProt P04062); experiment: Dose response cell-based high throughput screening assay to identify enhancers of beta-glucosidase activity. [Related pubchem assays: 784 ]; format: functional
[15] = mRNA 3' processing disruption, beta-gal signal increase – luminescence, S. cerevisiae SKY197-pL101, dose response (AID 2525); format: functional, cell-based

Chain of Lysosomal acid glucosylceramidase (P04062 whole entry): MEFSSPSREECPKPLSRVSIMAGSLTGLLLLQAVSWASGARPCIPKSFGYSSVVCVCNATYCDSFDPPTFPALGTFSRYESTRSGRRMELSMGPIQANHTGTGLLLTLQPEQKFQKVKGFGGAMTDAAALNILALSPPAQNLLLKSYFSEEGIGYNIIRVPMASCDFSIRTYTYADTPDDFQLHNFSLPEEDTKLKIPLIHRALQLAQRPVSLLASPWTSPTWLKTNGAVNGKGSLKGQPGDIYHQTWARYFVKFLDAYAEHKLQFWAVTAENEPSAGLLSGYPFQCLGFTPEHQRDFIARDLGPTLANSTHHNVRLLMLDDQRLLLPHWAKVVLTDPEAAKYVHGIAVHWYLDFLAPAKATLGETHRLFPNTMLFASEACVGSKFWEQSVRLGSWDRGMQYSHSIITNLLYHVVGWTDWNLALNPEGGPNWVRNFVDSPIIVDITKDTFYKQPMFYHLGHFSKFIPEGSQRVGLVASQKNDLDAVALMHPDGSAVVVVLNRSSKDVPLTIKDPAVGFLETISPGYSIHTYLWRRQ
Chain of Heat shock cognate 71 kDa protein (P11142 whole entry): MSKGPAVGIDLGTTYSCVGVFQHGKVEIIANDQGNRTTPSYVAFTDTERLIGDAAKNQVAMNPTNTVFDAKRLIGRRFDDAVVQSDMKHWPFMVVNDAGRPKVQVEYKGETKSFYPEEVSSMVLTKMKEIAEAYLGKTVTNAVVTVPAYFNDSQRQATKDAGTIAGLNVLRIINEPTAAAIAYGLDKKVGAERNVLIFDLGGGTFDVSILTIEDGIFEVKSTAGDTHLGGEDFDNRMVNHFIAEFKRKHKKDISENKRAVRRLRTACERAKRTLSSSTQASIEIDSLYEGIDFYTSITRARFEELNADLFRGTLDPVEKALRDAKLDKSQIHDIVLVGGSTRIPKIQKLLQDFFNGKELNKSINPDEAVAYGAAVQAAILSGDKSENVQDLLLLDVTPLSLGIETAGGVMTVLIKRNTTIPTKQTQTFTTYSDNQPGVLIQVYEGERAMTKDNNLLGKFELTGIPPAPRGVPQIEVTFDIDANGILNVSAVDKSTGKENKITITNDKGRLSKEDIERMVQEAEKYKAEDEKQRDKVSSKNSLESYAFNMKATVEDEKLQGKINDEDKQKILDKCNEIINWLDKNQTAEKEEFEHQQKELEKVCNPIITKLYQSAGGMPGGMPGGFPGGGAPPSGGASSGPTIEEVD
Chain of Sphingosine 1-phosphate receptor 2 (O95136 whole entry): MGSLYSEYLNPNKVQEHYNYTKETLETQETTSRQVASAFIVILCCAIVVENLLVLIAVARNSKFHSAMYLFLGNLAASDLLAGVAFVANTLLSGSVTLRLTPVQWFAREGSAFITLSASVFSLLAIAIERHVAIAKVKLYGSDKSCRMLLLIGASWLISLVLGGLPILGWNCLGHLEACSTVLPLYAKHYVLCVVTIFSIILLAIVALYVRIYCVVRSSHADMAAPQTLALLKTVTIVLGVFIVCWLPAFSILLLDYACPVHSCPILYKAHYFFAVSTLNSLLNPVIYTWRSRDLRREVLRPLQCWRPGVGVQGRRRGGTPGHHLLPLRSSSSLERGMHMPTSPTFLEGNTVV
Chain of Glyceraldehyde-3-phosphate dehydrogenase (P04406 whole entry): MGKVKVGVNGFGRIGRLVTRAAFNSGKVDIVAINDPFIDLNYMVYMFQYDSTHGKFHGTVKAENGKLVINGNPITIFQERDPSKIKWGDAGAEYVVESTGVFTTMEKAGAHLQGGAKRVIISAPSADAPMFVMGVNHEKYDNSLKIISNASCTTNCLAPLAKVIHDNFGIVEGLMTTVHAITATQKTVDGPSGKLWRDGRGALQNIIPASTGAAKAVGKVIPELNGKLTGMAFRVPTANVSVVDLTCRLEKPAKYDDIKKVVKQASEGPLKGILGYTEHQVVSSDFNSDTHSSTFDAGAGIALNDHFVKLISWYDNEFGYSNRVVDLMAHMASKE
Chain of Mitogen-activated protein kinase 10 (P53779 whole entry): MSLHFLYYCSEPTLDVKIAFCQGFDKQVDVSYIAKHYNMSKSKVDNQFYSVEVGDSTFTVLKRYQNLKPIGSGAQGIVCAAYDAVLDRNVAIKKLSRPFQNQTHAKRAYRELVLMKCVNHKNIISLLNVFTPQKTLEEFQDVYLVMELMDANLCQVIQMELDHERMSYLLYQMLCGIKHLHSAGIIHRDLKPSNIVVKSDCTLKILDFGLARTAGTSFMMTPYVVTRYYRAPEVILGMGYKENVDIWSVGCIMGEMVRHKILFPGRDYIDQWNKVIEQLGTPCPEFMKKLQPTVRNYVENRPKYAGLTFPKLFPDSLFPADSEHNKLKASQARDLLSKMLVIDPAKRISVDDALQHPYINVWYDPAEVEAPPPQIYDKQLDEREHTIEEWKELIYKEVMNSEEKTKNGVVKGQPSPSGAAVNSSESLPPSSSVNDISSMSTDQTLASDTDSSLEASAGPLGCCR
Chain of Heat shock 70 kDa protein 1A (P0DMV8 whole entry): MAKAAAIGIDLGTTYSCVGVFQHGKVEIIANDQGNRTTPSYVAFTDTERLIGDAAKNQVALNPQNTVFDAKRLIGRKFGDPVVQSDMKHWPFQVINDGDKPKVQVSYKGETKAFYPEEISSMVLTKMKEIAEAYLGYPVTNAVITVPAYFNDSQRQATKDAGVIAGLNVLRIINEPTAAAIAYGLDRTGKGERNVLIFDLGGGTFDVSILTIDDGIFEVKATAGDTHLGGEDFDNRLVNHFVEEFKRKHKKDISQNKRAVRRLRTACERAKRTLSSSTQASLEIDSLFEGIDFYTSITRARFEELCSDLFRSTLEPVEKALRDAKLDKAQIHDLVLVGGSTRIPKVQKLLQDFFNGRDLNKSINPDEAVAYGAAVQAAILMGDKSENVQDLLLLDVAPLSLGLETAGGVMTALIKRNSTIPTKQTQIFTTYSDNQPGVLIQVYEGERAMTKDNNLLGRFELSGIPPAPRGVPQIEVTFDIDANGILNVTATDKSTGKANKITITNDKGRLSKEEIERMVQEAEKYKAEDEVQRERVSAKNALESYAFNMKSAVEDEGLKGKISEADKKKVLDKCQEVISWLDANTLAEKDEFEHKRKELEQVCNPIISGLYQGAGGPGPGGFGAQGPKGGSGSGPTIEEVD
Chain of Ion channel NompC (Q7T1G6 whole entry): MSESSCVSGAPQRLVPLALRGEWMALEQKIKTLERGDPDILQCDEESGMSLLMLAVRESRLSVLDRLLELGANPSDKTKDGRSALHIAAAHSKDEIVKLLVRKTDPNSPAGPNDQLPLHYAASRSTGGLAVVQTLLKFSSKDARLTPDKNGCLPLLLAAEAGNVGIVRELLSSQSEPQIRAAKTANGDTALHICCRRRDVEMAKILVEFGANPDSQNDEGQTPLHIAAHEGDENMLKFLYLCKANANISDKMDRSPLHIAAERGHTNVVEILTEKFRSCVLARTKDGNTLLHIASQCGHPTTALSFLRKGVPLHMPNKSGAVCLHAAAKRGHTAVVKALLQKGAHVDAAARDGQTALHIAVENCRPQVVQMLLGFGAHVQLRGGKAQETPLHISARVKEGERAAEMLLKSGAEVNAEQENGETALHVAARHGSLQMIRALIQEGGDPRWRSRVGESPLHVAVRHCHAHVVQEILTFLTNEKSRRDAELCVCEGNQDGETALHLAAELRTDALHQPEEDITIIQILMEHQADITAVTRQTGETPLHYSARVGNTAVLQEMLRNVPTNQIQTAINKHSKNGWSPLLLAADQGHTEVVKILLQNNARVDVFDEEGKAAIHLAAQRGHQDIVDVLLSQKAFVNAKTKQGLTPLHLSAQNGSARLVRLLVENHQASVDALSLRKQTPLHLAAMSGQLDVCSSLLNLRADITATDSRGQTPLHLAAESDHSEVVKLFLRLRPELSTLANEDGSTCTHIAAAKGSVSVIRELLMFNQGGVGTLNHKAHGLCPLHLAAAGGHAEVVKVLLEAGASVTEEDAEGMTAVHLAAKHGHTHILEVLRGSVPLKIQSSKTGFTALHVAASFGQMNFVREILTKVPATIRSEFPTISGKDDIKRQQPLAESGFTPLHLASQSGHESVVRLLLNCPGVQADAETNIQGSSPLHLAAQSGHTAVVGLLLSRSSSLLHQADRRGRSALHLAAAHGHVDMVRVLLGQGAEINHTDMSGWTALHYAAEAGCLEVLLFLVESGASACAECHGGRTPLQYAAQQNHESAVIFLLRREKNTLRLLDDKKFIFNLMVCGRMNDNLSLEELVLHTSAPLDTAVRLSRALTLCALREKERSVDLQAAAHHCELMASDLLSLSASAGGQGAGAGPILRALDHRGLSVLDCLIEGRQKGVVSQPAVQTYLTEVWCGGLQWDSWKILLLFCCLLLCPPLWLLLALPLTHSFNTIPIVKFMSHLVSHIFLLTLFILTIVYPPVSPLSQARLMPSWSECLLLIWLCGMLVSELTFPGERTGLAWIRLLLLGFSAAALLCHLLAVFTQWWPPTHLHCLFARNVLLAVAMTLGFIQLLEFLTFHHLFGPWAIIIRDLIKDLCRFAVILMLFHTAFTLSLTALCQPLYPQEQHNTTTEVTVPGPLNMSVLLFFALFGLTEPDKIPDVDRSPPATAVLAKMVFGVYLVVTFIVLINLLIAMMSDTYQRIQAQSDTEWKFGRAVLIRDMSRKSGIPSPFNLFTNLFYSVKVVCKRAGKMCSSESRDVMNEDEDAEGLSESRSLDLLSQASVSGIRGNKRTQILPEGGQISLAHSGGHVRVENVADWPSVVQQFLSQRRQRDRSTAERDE

For `COc1cc(S(=O)(=O)N(C)C2CCCCC2)c(C)cc1C`, which EC50 (Ion channel NompC) is on record?
Its EC50 is > 29.9 µM (not active).

And the EC50 (Mucolipin-3)?
The EC50 was 3.06 µM (active).

For `Cc1cc(C(=O)CSc2ncccn2)c(C)n1Cc1ccccc1`, which EC50 [1] is on record?
Its EC50 is > 30 µM (not active).

For `COc1ccc2c(c1)C1C=CCC1C(C(=O)O)N2` (configuration not stated), which IC50 [2] is on record?
The IC50 was 33.5 µM (active).

And the IC50 [3]?
The IC50 was 20.6 µM (active).

And the IC50 [4]?
Its IC50 is 13.2 µM (active).

And the IC50 [5]?
Its IC50 is > 100 µM (not active).

And the IC50 [6]?
The IC50 was > 100 µM (not active).

And the IC50 [7]?
Its IC50 is 32 µM (active).

Which CC50 [8] does the source give for `COc1ccc2c(c1)c(C(C)=O)c(C)n2-c1ccccc1` here?
The CC50 was > 40 µM (active).

With `COc1ccc(/N=C/c2c(O)ccc3ccccc23)cc1` as the molecule, how does the EC50 [9] read?
Its EC50 is > 300 µM (not active).

What about the IC50 [10] of the same molecule?
Its IC50 is > 100 µM (active).

And the EC50 [11]?
Its EC50 is > 300 µM (not active).

What about the EC50 [12] of the same molecule?
The EC50 was 35.1 µM (active).

Which IC50 [13] does the source give for `Cc1ccnc(Nc2nc(-c3c(C)nc4sccn34)cs2)c1` here?
The IC50 was > 93.1 µM (not active).

And the EC50 [14]?
The EC50 was > 50 µM (not active).

With `CCN1/C(=C/C=C/c2sc3ccccc3[n+]2CC)Sc2ccccc21` [ALAZANINE] as the molecule, how does the EC50 [15] read?
The EC50 was 243 µM (active).
